SMILES strings stand for the structures. Several values for one entry are separate records, joined by “and”; a condition that tells them apart may be missing. Equal entries are not always repeated. Toxic doses and inconclusive results are not listed.

The assay deals with BDF1 mice, P288 methotrexate-resistant leukemia, survival T/C. The assay is described as follows: NCI In Vivo Anticancer Drug Screen. Data for tumor model P288 Lymphocytic Leukemia resistant to methotrexate; NSC 740 (intraperitoneal) in B6D2F1 (BDF1) mice. As to conditions: endpoint: median survival time, higher = longer survival. As for the experimental part:
The antitumor activity of compounds was measured in mice bearing transplantable tumors. Survival or tumor size were measured and the results are expressed as the measurement made in the treated group (T) divided by the measurement made in the vehicle treated control group (C). The tumor model used in this assay is P288 Lymphocytic Leukemia resistant to methotrexate; NSC 740 (intraperitoneal) in B6D2F1 (BDF1) mice

Setting [1] is: dose: 6.0 mg/kg/injection, schedule: Q01DX010 (ip), vehicle: saline.
Setting [2] is: dose: 8.0 mg/kg/injection, schedule: Q01DX010 (ip), vehicle: saline.
[3] abbreviates: dose: 12.0 mg/kg/injection, schedule: Q01DX010 (ip), vehicle: saline.
[4] abbreviates: dose: 6.25 mg/kg/injection, schedule: Q01DX010 (ip), vehicle: saline.
Where [5] appears, read: dose: 1.0 mg/kg/injection, schedule: Q01DX010 (ip), vehicle: saline.
Setting [6] is: dose: 2.0 mg/kg/injection, schedule: Q01DX010 (ip), vehicle: saline.
[7] abbreviates: dose: 4.0 mg/kg/injection, schedule: Q01DX010 (ip), vehicle: saline.
[8] abbreviates: dose: 10.0 mg/kg/injection, schedule: Q01DX010 (ip), vehicle: saline.
Setting [9] is: dose: 20.0 mg/kg/injection, schedule: Q01DX010 (ip), vehicle: saline.
[10] abbreviates: dose: 40.0 mg/kg/injection, schedule: Q01DX010 (ip), vehicle: saline.
[11] abbreviates: dose: 80.0 mg/kg/injection, schedule: Q01DX010 (ip), vehicle: saline.
Setting [12] is: dose: 500.0 mg/kg/injection, schedule: Q01DX010 (ip), vehicle: saline.
Where [13] appears, read: dose: 5.0 mg/kg/injection, schedule: Q01DX010 (ip), vehicle: saline.
Setting [14] is: dose: 1.5 mg/kg/injection, schedule: Q01DX010 (ip), vehicle: saline.
[15] abbreviates: dose: 3.0 mg/kg/injection, schedule: Q01DX010 (ip), vehicle: saline.
The mark [16] stands for this setting: dose: 120.0 mg/kg/injection, schedule: Q01DX010 (ip), vehicle: saline.
The mark [17] stands for this setting: dose: 50.0 mg/kg/injection, schedule: Q01DX010 (ip), vehicle: saline.
The mark [18] stands for this setting: dose: 0.5 mg/kg/injection, schedule: Q01DX010 (ip), vehicle: saline.
Where [19] appears, read: dose: 15.6 mg/kg/injection, schedule: Q01DX010 (ip), vehicle: saline.
Setting [20] is: dose: 31.3 mg/kg/injection, schedule: Q01DX010 (ip), vehicle: saline.
The mark [21] stands for this setting: dose: 62.5 mg/kg/injection, schedule: Q01DX010 (ip), vehicle: saline.
[22] abbreviates: dose: 60.0 mg/kg/injection, schedule: Q01DX010 (ip), vehicle: saline.
The mark [23] stands for this setting: dose: 25.0 mg/kg/injection, schedule: Q01DX010 (ip), vehicle: saline.
[24] abbreviates: dose: 100.0 mg/kg/injection, schedule: Q01DX010 (ip), vehicle: saline.
Setting [25] is: dose: 200.0 mg/kg/injection, schedule: Q01DX010 (ip), vehicle: saline.

Take `O=C(Nc1ccc(C2=NCCN2)cc1)c1ccc(C(=O)Nc2ccc(C3=NCCN3)cc2)c([N+](=O)[O-])c1`: the T/C under setting [1] is 150 % of control; the T/C under setting [2] is 160 % of control and 172 % of control; the T/C under setting [3] was 238 % of control and 285 % of control; the T/C (dose: 18.0 mg/kg/injection, schedule: Q01DX010 (ip), vehicle: saline) was 161 % of control and 165 % of control.

As to `O=NN(CCCl)C(=O)NCCCl`, the T/C under setting [4] is 280 % of control and 300 % of control; the T/C (dose: 12.5 mg/kg/injection, schedule: Q01DX010 (ip), vehicle: saline) is 180 % of control.

Consider `CCN(CC)c1ccc2cc3ccc(=[N+](CC)CC)cc-3oc2c1`, for which the T/C reads like this: under setting [5], 90 % of control; under setting [6], 104 % of control; under setting [7], 100 % of control; under setting [2], 90 % of control.

With `Clc1ccc(C(c2ccccc2Cl)C(Cl)Cl)cc1` (centres undefined), the T/C is, setting by setting: (dose: 62.5 mg/kg/injection, schedule: Q01DX010 (sc), vehicle: steriod suspending solution) 109 % of control; (dose: 125.0 mg/kg/injection, schedule: Q01DX010 (sc), vehicle: steriod suspending solution) 100 % of control; (dose: 250.0 mg/kg/injection, schedule: Q01DX010 (sc), vehicle: steriod suspending solution) 109 % of control; (dose: 500.0 mg/kg/injection, schedule: Q01DX010 (sc), vehicle: steriod suspending solution) 100 % of control.

Consider `Nc1nc(=S)c2[nH]cnc2[nH]1`, for which the T/C by setting is: (dose: 1.25 mg/kg/injection, schedule: Q01DX010 (ip), vehicle: other) 88 % of control and 118 % of control; (dose: 2.5 mg/kg/injection, schedule: Q01DX010 (ip), vehicle: other) 111 % of control and 112 % of control; (dose: 5.0 mg/kg/injection, schedule: Q01DX010 (ip), vehicle: other) 111 % of control.

Consider `Nc1nc(=S)c2ncn(C3OC(CO)C(O)C3O)c2[nH]1` (centres undefined), for which the T/C by setting is: under setting [6], 90 % of control and 91 % of control and 115 % of control; under setting [7], 91 % of control and 96 % of control and 120 % of control; under setting [2], 93 % of control; (dose: 16.0 mg/kg/injection, schedule: Q01DX010 (ip), vehicle: saline) 90 % of control (2×) and 91 % of control.

As for `CC1CCOS(=O)O1` (centres undefined), the T/C is, setting by setting: under setting [8], 91 % of control and 95 % of control; under setting [9], 90 % of control; under setting [10], 95 % of control; under setting [11], 90 % of control.

On to `CCOC(N)=O`, for which the T/C (dose: 125.0 mg/kg/injection, schedule: Q01DX010 (ip), vehicle: saline) was 100 % of control; the T/C (dose: 250.0 mg/kg/injection, schedule: Q01DX010 (ip), vehicle: saline) is 100 % of control; the T/C under setting [12] was 100 % of control; the T/C (dose: 1000.0 mg/kg/injection, schedule: Q01DX010 (ip), vehicle: saline) is 87 % of control and 88 % of control.

`O=c1[nH]c(=O)n(C2CC(O)C(CO)O2)cc1F` (centres undefined): the T/C was 95 % of control under setting [13]; 108 % of control and 111 % of control under setting [8]; 108 % of control and 115 % of control under setting [9]; 116 % of control and 123 % of control under setting [10]; 92 % of control under setting [11].

`Nc1ncnc2[nH]ncc12`: the T/C by setting is: under setting [14], 100 % of control; under setting [15], 95 % of control and 100 % of control; under setting [1], 100 % of control and 105 % of control; under setting [3], 90 % of control and 110 % of control.

As to `CN(C)c1ccc(Nc2c3ccccc3nc3ccccc23)cc1`, the T/C reads like this: (dose: 36.0 mg/kg/injection, schedule: Q01DX010 (ip), vehicle: saline) 95 % of control and 115 % of control; (dose: 54.0 mg/kg/injection, schedule: Q01DX010 (ip), vehicle: saline) 115 % of control and 116 % of control; under setting [16], 120 % of control.

For the molecule `COS(C)(=O)=O`, under setting [17], the T/C is 90 % of control.

On to `NC(=O)N(CCCl)N=O`, for which the T/C runs as follows: under setting [18], 210 % of control and 213 % of control; under setting [5], 300 % of control; under setting [6], 168 % of control and 300 % of control; under setting [7], 90 % of control.

Take `CCCCNc1ncnc2c1cnn2C`: the T/C is, setting by setting: under setting [19], 105 % of control; under setting [20], 110 % of control; under setting [21], 95 % of control and 110 % of control.

`Clc1ncnc2nc[nH]c12`: the T/C (dose: 7.5 mg/kg/injection, schedule: Q01DX010 (ip), vehicle: saline) is 93 % of control; the T/C (dose: 15.0 mg/kg/injection, schedule: Q01DX010 (ip), vehicle: saline) was 93 % of control; the T/C (dose: 30.0 mg/kg/injection, schedule: Q01DX010 (ip), vehicle: saline) was 93 % of control; the T/C under setting [22] was 100 % of control.

With `CN(C)c1ccc(/C=C\c2ccnc3ccccc23)cc1`, the T/C is, setting by setting: under setting [14], 100 % of control; under setting [15], 100 % of control; under setting [1], 100 % of control; under setting [3], 105 % of control.

As for `CSc1ncnc2nc[nH]c12`, the T/C is, setting by setting: (dose: 3.13 mg/kg/injection, schedule: Q01DX010 (ip), vehicle: saline) 91 % of control and 100 % of control; under setting [4], 91 % of control and 96 % of control; under setting [17], 90 % of control.

Regarding `O=C(Nc1ccc(NC(=O)Nc2cccc(C3=NCCN3)c2)cc1)Nc1cccc(C2=NCCN2)c1`, the T/C is 200 % of control and 225 % of control under setting [22]; 250 % of control and 322 % of control under setting [16]; 183 % of control and 235 % of control (dose: 240.0 mg/kg/injection, schedule: Q01DX010 (ip), vehicle: saline); 100 % of control and 120 % of control (dose: 480.0 mg/kg/injection, schedule: Q01DX010 (ip), vehicle: saline).

With `CS(=O)(=O)OCCN(CCOS(C)(=O)=O)c1ccc(N=O)cc1`, the T/C under setting [18] was 120 % of control.

On to `CN(C)/N=N/c1nc[nH]c1C(N)=O`, for which the T/C was 100 % of control under setting [23]; 90 % of control under setting [17]; 105 % of control and 109 % of control under setting [24]; 90 % of control and 100 % of control under setting [25].

As to `Cn1cnc([N+](=O)[O-])c1Sc1nc(N)nc2nc[nH]c12`, the T/C is, setting by setting: (dose: 2.5 mg/kg/injection, schedule: Q01DX010 (ip), vehicle: saline) 109 % of control; under setting [13], 90 % of control; under setting [8], 109 % of control; under setting [9], 109 % of control.

With `c1ccc(CCSc2ncnc3nc[nH]c23)cc1`, the T/C reads like this: under setting [19], 86 % of control; under setting [20], 86 % of control; under setting [21], 100 % of control; under setting [12], 87 % of control.

In the case of `Oc1cc(CN(CCCl)CCCl)c(O)cc1CN(CCCl)CCCl`, the T/C by setting is: (dose: 0.63 mg/kg/injection, schedule: Q01DX010 (ip), vehicle: saline) 104 % of control and 115 % of control; (dose: 1.25 mg/kg/injection, schedule: Q01DX010 (ip), vehicle: saline) 121 % of control; under setting [13], 115 % of control.

For the molecule `CC(=O)Nc1ccc2nc3ccc(NC(C)=O)cc3[n+](-c3ccccc3)c2c1`, the T/C under setting [23] is 122 % of control; the T/C under setting [17] is 110 % of control; the T/C under setting [24] was 106 % of control; the T/C under setting [25] was 100 % of control and 113 % of control.

The values above are taken from PubChem BioAssay AID204 (DTP/NCI, 2004).
